According to ChEMBL document CHEMBL1158784, “Sorbicillin analogues and related dimeric compounds from Penicillium notatum” (2005):
Activity calls are given as the source filed them. No cut-off for these calls is given here.

What was measured:
Staphylococcus aureus = assay: Antimicrobial activity against Staphylococcus aureus at 20 ug/9 mm disk by agar diffusion method; assay type: functional
[1] = tested on: Streptomyces viridochromogenes; assay: Antimicrobial activity against Streptomyces viridochromogenes Tu57 at 20 ug/9 mm disk by agar diffusion method; assay type: functional, organism-based
Escherichia coli = assay: Antimicrobial activity against Escherichia coli at 20 ug/9 mm disk by agar diffusion method; assay type: functional, organism-based
Candida albicans = assay: Antimicrobial activity against Candida albicans at 20 ug/9 mm disk by agar diffusion method; assay type: functional
Rhizomucor miehei = assay: Antimicrobial activity against Mucor miehei at 20 ug/9 mm disk by agar diffusion method; assay type: functional, organism-based
Chlorella vulgaris = assay: Antimicrobial activity against Chlorella vulgaris at 20 ug/9 mm disk by agar diffusion method; assay type: functional, organism-based
Chlorella sorokiniana = assay: Antimicrobial activity against Chlorella sorokiniana at 20 ug/9 mm disk by agar diffusion method; assay type: functional, organism-based
Desmodesmus subspicatus = assay: Antimicrobial activity against Scenedesmus subspicatus at 20 ug/9 mm disk by agar diffusion method; assay type: functional, organism-based
Bacillus subtilis = assay: Antimicrobial activity against Bacillus subtilis at 20 ug/9 mm disk by agar diffusion method; assay type: functional

Compound	inhibition zone (IZ) (Staphylococcus aureus)	Activity [1]	Activity (Escherichia coli)	inhibition zone (IZ) (Candida albicans)	Activity (Rhizomucor miehei)	Activity (Chlorella vulgaris)	Activity (Chlorella sorokiniana)	Activity (Desmodesmus subspicatus)	inhibition zone (IZ) (Bacillus subtilis)	Activity (Staphylococcus aureus)	Activity (Candida albicans)	Activity (Bacillus subtilis)
CC(C)=CCC/C(C)=C/CC/C(C)=C/C[C@@]12O[C@@H]1[C@H](O)C(C)=CC2=O	12 mm	inactive	inactive	13 mm	inactive	inactive	inactive	inactive	12 mm	–	–	–
C/C=C/CCC(=O)c1cc(C)c(O)c(C)c1O	12 mm	inactive	inactive	13 mm	inactive	inactive	inactive	inactive	12 mm	–	–	–
C/C=C/CCC(=O)c1c(C)c(O)c(O)c(C)c1O	–	inactive	inactive	–	inactive	inactive	inactive	inactive	–	inactive	inactive	inactive
C/C=C/C=C/C(O)=C1/C(=O)[C@](C)(O)C(=O)C(C)=C1O	12 mm	inactive	inactive	13 mm	inactive	inactive	inactive	inactive	12 mm	–	–	–
C/C=C/C=C/C(=O)c1c(C)c(O)c(O)c(C)c1O [SOHIRNONE B]	12 mm	inactive	inactive	13 mm	inactive	inactive	inactive	inactive	12 mm	–	–	–
C/C=C/C=C/C(O)=C1/C(=O)[C@]2(C)C(=O)[C@@](C)(O)[C@H]1[C@H]1[C@]2(C(=O)CC/C=C/C)C(=O)C(C)=C(O)[C@@]1(C)O [BISVERTINOQUINOL]	12 mm	inactive	inactive	13 mm	inactive	inactive	inactive	inactive	12 mm	–	–	–
C/C=C/C=C/C(O)=C1\C(=O)[C@]2(C)C(=O)[C@@](C)(O)[C@H]1C[C@@H]2OCCCC [REZISHANONE B]	12 mm	inactive	inactive	13 mm	inactive	inactive	inactive	inactive	12 mm	–	–	–
C/C=C/C=C/C(=O)C1=C(C)C(=O)C(O)=C(C)C1=O	–	inactive	inactive	–	inactive	inactive	inactive	inactive	–	inactive	inactive	inactive
C/C=C/C=C/C(=O)C1=C[C@@]2(C)[C@H]3C(C(=O)/C=C/C=C/C)=C(O)C(C)=C(O)[C@@]3(C)O[C@@]2(O)[C@@](C)(O)C1=O	–	inactive	inactive	–	inactive	inactive	inactive	inactive	–	inactive	inactive	inactive
C/C=C/C=C/C(O)=C1\C(=O)[C@]2(C)C(=O)[C@@](C)(O)[C@H]1[C@H]1OC(=O)C[C@]12CO [REZISHANONE A]	12 mm	inactive	inactive	13 mm	inactive	inactive	inactive	inactive	12 mm	–	–	–
C/C=C/CCC(=O)c1cc(C)c(O)cc1O [SOHIRNONE A]	12 mm	inactive	inactive	13 mm	inactive	inactive	inactive	inactive	12 mm	–	–	–
C/C=C/CC/C(O)=C1\C(=O)[C@]2(C)C(=O)[C@@](C)(O)[C@H]1C[C@@H]2OCC [REZISHANONE D]	12 mm	inactive	inactive	13 mm	inactive	inactive	inactive	inactive	12 mm	–	–	–
C/C=C/C=C/C(=O)[C@]12C(=O)C(C)=C(O)[C@@](C)(O)[C@H]1[C@H]1\C(=C(O)/C=C/C=C/C)C(=O)[C@]2(C)C(=O)[C@@]1(C)O [BISORBICILLINOL]	12 mm	inactive	inactive	13 mm	inactive	inactive	inactive	inactive	12 mm	–	–	–
C/C=C/C=C/C(O)=C1\C(=O)[C@]2(C)C(=O)[C@@](C)(O)[C@H]1C[C@@H]2OCC [REZISHANONE C]	12 mm	inactive	inactive	13 mm	inactive	inactive	inactive	inactive	12 mm	–	–	–
C/C=C/C=C/C(O)=C1\C(=O)C(C)=C(O)[C@@](C)(O)C1=O	–	inactive	inactive	–	inactive	inactive	inactive	inactive	–	inactive	inactive	inactive
